Test results as given in US6537998B1, “Gonadotropin-releasing hormone receptor antagonists and methods relating thereto” (Neurocrine Biosciences, Inc., priority 1999, dated 2003).

Target: T1, GnRH receptor (Homo sapiens, UniProt P30968)
T1 construct: expressed in transfected cells
T1 sequence (P30968 1-328): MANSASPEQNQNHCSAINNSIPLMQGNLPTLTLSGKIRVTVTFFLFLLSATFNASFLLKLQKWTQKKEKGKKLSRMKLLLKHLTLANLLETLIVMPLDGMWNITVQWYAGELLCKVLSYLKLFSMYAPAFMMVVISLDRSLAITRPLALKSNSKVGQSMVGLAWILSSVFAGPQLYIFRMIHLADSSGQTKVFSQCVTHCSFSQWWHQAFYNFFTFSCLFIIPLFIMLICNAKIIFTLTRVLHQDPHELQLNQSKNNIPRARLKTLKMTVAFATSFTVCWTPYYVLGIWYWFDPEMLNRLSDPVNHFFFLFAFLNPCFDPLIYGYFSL
Assay: GnRH Receptor Membrane Binding Assay
Conditions: calculated from IC50 for displacement of radiolabeled ligand ([125I]-labeled GnRH peptide) from the GnRH receptor, Cheng-Prusoff
Description: Activity of GnRH receptor antagonists are typically calculated from the IC50 as the concentration of a compound necessary to displace 50% of the radiolabeled ligand from the GnRH receptor, and is reported as a “Ki” value calculated by the following equation: [formula]
where L=radioligand and KD=affinity of radioligand for receptor (Cheng and Prusoff, Biochem. Pharmacol. 22:3099, 1973). GnRH receptor antagonists of this invention have a Ki of 100 μM or less. In a preferred embodiment of this invention, the GnRH receptor antagonists have a Ki of less than 10 μM, and more preferably less than 1 μM. More preferred compounds include: 1-1, 1-2-5, 12, 13-15, 19, 21, 27, 31, 32, 34, 37, 55, 58, 64, 73, 2B, 2D, 3A, 3B, 3D, 4A, 4B, 4C, 4D, 4G, 4H, 5A and 5B (see Examples below).
Radio-iodination of GnRH Peptide
The GnRH analog is labeled by the chloramine-T method. To 10 μg of peptide in 20 μl of 0.5M sodium phosphate buffer, pH 7.6, is added 1 mCi of Na125I, followed by 22.5 μg chloramine-T and the mixture vortexed for 20 sec. The reaction is stopped by the addition of 60 μg sodium metabisulfite and the free iodine is removed by passing the iodinated mixture through a C-8 Sep-Pak cartridge (Millipore Corp., Milford, Mass.). The peptide is eluted with a small volume of 80% acetonitrile/water. The recovered labeled peptide is further purified by reverse phase HPLC on a Vydac C-18 analytical column (The Separations Group, Hesperia, Calif.) on a Beckman 334 gradient HPLC system using a gradient of acetonitrile in 0.1% TFA. The purified radioactive peptide is stored in 0.1% BSA/20% acetonitrile/0.1% TFA at […] and can be used for up to 4 weeks.
GnRH Receptor Membrane Binding Assay
Cells stably, or transiently, transfected with GnRH receptor expression vectors are harvested, resuspended in 5% sucrose and homogenized using a polytron homogenizer (2×15 sec). Nuclei are removed by centrifugation (3000×g for 5 min.), and the supernatant centrifuged (20,000×g for 30 min, 4° C.) to collect the membrane fraction. The final membrane preparation is resuspended in binding buffer (10 mM Hepes (pH 7.5), 150 mM NaCl, and 0.1% BSA) and stored at −70° C. Binding reactions are performed in a Millipore MultiScreen 96-well filtration plate assembly with polyethylenimine coated GF/C membranes. The reaction is initiated by adding membranes (40 ug protein in 130 ul binding buffer) to 50 ul of [^125I]-labeled GnRH peptide (˜100,000 cpm), and 20 ul of competitor at varying concentrations. The reaction is terminated after 90 minutes by application of vacuum and washing (2×) with phosphate buffered saline. Bound radioactivity is measured using 96-well scintillation counting (Packard Topcount) or by removing the filters from the plate and direct gamma counting. Ki values are calculated from competition binding data using non-linear least squares regression using the Prism software package (GraphPad Software).

Ki [nM]	SMILES
< 1000	COC(=O)C(C)(C)c1nc2n(Cc3ccccc3F)c(C)c(-c3cccc(OC)c3F)c(=O)n2c1CN(C)CCc1ccccn1 [Example 4H]
< 1000	COC(=O)C(C)(C)c1nc2n(Cc3ccccc3F)c(C)c(-c3cccc(OC)c3)c(=O)n2c1CNCc1ccccn1 [Example 4G]
< 1000	COC(=O)C(C)(C)c1nc2n(Cc3ccccc3F)c(C)c(-c3cccc(OC)c3)c(=O)n2c1CN(C)Cc1ccco1 [Example 4D]
< 1000	CCOC(=O)Cc1nc2n(Cc3ccccc3F)c(C)c(-c3cccc(OC)c3)c(=O)n2c1CN(C)CCc1ccccn1 [Example 5A, 2-Ethoxycarbonylmethyl-3-{N-methyl-N-[2-(2-pyridyl)ethyl]aminomethyl}-5-(3-methoxyphenyl)-6-methyl-7-(2-fluorobenzyl)imidazolo[1,2-a]pyrimid-4-one]
< 1000	CCOC(=O)Cc1nc2n(Cc3ccccc3F)c(C)c(-c3cccc(OC)c3)c(=O)n2c1CN(C)Cc1ccccc1 [Example 5B, 2-ethoxycarbonylmethyl-3-{N-methyl-N-benzyl)-5-(3-methoxyphenyl)-6-methyl-7-(2-fluorobenzyl)imidazolo[1,2-a]pyrimid-4-one]

Second part, the compound before the results:

SMILES	Ki [nM]
Cc1c(-c2ccccc2F)c(=O)n2c(CN(C)CCc3ccccn3)c(C(C)(C)C)nc2n1Cc1ccccc1F [Example 1-55]	< 1000
CC(=O)c1cccc(-c2c(C)n(Cc3ccccc3F)c3nc(C(C)(C)C)c(CN(C)CCc4ccccn4)n3c2=O)c1 [Example 1-32]	< 1000
CC(=O)c1cccc(-c2c(C)n(Cc3ccccc3F)c3nc(C(C)(C)C)c(CN(C)Cc4ccccc4)n3c2=O)c1 [Example 1-31]	< 1000
Cc1c(-c2ccccc2)c(=O)n2c(CN(C)Cc3ccco3)c(C(C)(C)C)nc2n1Cc1ccccc1F [Example 1-19]	< 1000
COc1cccc(-c2c(C)n(Cc3ccccc3F)c3nc(C(C)(C)C)c(CN(C)CCc4ccccn4)n3c2=O)c1 [Example 1-1, 2-(tert-butyl)-3-[N-methyl-N-(2-pyridylethyl)aminomethyl]-5-(3-methoxyphenyl)-6-methyl-7-(2-fluorobenzyl)immidazolo[1,2-a]pyrimid-4-one]	< 1000
COc1cccc(-c2c(C)n(Cc3ccccc3F)c3nc(C4(C)CCOC4=O)c(CN(C)Cc4ccco4)n3c2=O)c1 (stereo not shown) [Example 1-27]	< 1000
COC(=O)C(C)(C)c1nc2n(Cc3ccccc3F)c(C)c(-c3cccc(OC)c3)c(=O)n2c1CN(C)Cc1ccccc1 [Example 4A, 2-(1-methoxycarbonyl-1-methylethyl)-3-(N-methyl-N-benzylaminomethyl)-5-(3-methoxyphenyl)-6-methyl-7-(2-flurorbenzyl)imidazolo[1,2-a]pyrimid-4-one]	< 1000
COc1cccc(-c2c(C)n(Cc3ccccc3F)c3nc(C(C)(C)C)c(CN(C)[C@H](C)c4ccccc4)n3c2=O)c1 [Example 1-37]	< 1000
CCN(CC)CCN(C)Cc1c(C(C)(C)C)nc2n(Cc3ccccc3F)c(C)c(-c3ccc4c(c3)OCO4)c(=O)n12 [Example 1-73]	< 1000
COc1cccc(-c2c(C)n(Cc3ccccc3F)c3nc(C(C)(C)C)c(CN(C)Cc4ccccn4)n3c2=O)c1 [Example 1-12]	< 1000
COc1cccc(-c2c(C)n(Cc3ccccc3F)c3nc(C4(C)CCOC4=O)c(CN(C)Cc4ccccc4)n3c2=O)c1 (stereo not shown) [Example 1-21]	< 1000
